Test results as given in ChEMBL document CHEMBL1201862, “PubChem BioAssay data set” (2004).
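Values below derive from 48-hour exposures of cells grown in 96-well plates, with endpoints linearly interpolated between the two concentrations bracketing the appropriate inhibition level. GI50 = concentration required for 50% inhibition of growth.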 Activity calls are given as the source filed them. Rule as the data show it: active = GI50 up to about 1.1 µM and inactive = higher.

What was measured:
Assay in all cases: inhibition of tumour cell growth, NCI panel, 48 h
786-0 = test system: 786-0
A498 = test system: A498
A549 = test system: A549
BT-549 = test system: BT-549
HCT-116 = test system: HCT-116
HCT-15 = test system: HCT-15
Hs-578T = test system: Hs-578T
K562 = test system: K562
KM12 = test system: KM12
MCF7 = test system: MCF7
MDA-MB-231 = test system: MDA-MB-231
NCI/ADR-RES = test system: NCI/ADR-RES
OVCAR-8 = test system: OVCAR-8
SF-539 = test system: SF-539
SNB-19 = test system: SNB-19
SNB-75 = test system: SNB-75
SW-620 = test system: SW-620
TK-10 = test system: TK-10
RXF 393 = test system: RXF 393
SR = test system: SR

SMILES | GI50 (786-0) | GI50 (A498) | GI50 (A549) | GI50 (BT-549) | GI50 (HCT-116) | GI50 (HCT-15) [µM] | GI50 (Hs-578T) | GI50 (K562) | GI50 (KM12) | GI50 (MCF7) | GI50 (MDA-MB-231) | GI50 (NCI/ADR-RES) | GI50 (OVCAR-8) | GI50 (SF-539) | GI50 (SNB-19) | GI50 (SNB-75) | GI50 (SW-620) | GI50 (TK-10) | GI50 (RXF 393) | GI50 (SR)
NC(=S)SCCC(=O)O | > 100 µM (inactive) | > 100 µM (inactive) | > 100 µM (inactive) | > 100 µM (inactive) | > 100 µM (inactive) | > 100 | > 100 µM (inactive) | > 100 µM (inactive) | > 100 µM (inactive) | > 100 µM (inactive) | > 100 µM (inactive) | > 100 µM (inactive) | > 100 µM (inactive) | > 100 µM (inactive) | > 100 µM (inactive) | > 100 µM (inactive) | > 100 µM (inactive) | > 100 µM (inactive) | – | –
CCSC12CC3c4cccc5c4C(CN5C(=O)c4ccccc4)CC3(O1)N(C)C2=O (configuration not stated) | 36.2 µM (inactive) | 32.1 µM (inactive) | 38.9 µM (inactive) | 26.1 µM (inactive) | 30.1 µM (inactive) | 29.4 | 46.3 µM (inactive) | 33.3 µM (inactive) | 45.4 µM (inactive) | – | 27.9 µM (inactive) | 29 µM (inactive) | 31.5 µM (inactive) | 26.9 µM (inactive) | 87.3 µM (inactive) | 73.6 µM (inactive) | 75.5 µM (inactive) | 48.5 µM (inactive) | 71.1 µM (inactive) | 28.7 µM (inactive)
S=C1Nc2ccccc2SC1c1ccccc1 (configuration not stated) | 34.9 µM (inactive) | – | > 100 µM (inactive) | > 100 µM (inactive) | > 100 µM (inactive) | > 100 | 19.9 µM (inactive) | 94.8 µM (inactive) | > 100 µM (inactive) | > 100 µM (inactive) | 66.1 µM (inactive) | 56.1 µM (inactive) | > 100 µM (inactive) | – | 39 µM (inactive) | 23.6 µM (inactive) | – | 56.6 µM (inactive) | 16.6 µM (inactive) | 30.2 µM (inactive)
O=C1c2cccnc2S(=O)(=O)N1c1ccc(Br)cc1 | > 100 µM (inactive) | > 100 µM (inactive) | > 100 µM (inactive) | 79.1 µM (inactive) | > 100 µM (inactive) | > 100 | > 100 µM (inactive) | 41.6 µM (inactive) | > 100 µM (inactive) | – | > 100 µM (inactive) | > 100 µM (inactive) | > 100 µM (inactive) | – | 75.7 µM (inactive) | 95.1 µM (inactive) | > 100 µM (inactive) | > 100 µM (inactive) | > 100 µM (inactive) | 41.3 µM (inactive)
O=C(N/N=C1/C(=O)c2c3ccccc3cc3cccc1c23)c1cccc(Cl)c1 | 56.6 µM (inactive) | > 100 µM (inactive) | > 100 µM (inactive) | > 100 µM (inactive) | > 100 µM (inactive) | > 100 | 16 µM (inactive) | > 100 µM (inactive) | > 100 µM (inactive) | – | > 100 µM (inactive) | > 100 µM (inactive) | > 100 µM (inactive) | 90.2 µM (inactive) | 41.4 µM (inactive) | > 100 µM (inactive) | > 100 µM (inactive) | – | > 100 µM (inactive) | > 100 µM (inactive)
O=c1[nH]nc(Cc2ccc(Cl)cc2)n1/N=C/c1ccco1 | 30.4 µM (inactive) | > 100 µM (inactive) | > 100 µM (inactive) | 40.6 µM (inactive) | 93.1 µM (inactive) | > 100 | – | > 100 µM (inactive) | > 100 µM (inactive) | 3.15 µM (inactive) | 46.1 µM (inactive) | 96.8 µM (inactive) | 66.5 µM (inactive) | 27.4 µM (inactive) | 25.4 µM (inactive) | 28.6 µM (inactive) | > 100 µM (inactive) | – | 26.5 µM (inactive) | > 100 µM (inactive)
CCOC(=O)C(C)c1nc2cc(F)c(F)cc2[nH]c1=O (configuration not stated) | > 100 µM (inactive) | – | > 100 µM (inactive) | > 100 µM (inactive) | > 100 µM (inactive) | > 100 | > 100 µM (inactive) | > 100 µM (inactive) | > 100 µM (inactive) | > 100 µM (inactive) | > 100 µM (inactive) | > 100 µM (inactive) | > 100 µM (inactive) | > 100 µM (inactive) | > 100 µM (inactive) | > 100 µM (inactive) | > 100 µM (inactive) | > 100 µM (inactive) | > 100 µM (inactive) | –
Cc1ccc(-n2nnc3c(NNc4ccccc4)n[nH]c(=O)c32)cc1 | 67.3 µM (inactive) | – | 55.6 µM (inactive) | 73.3 µM (inactive) | 82.8 µM (inactive) | > 100 | – | 48.3 µM (inactive) | > 100 µM (inactive) | 35.3 µM (inactive) | 96.8 µM (inactive) | 76.7 µM (inactive) | 49.8 µM (inactive) | > 100 µM (inactive) | 59 µM (inactive) | 36.6 µM (inactive) | – | 28.1 µM (inactive) | – | > 100 µM (inactive)
Cn1cc(C=C(C#N)C#N)c(=O)n(C)c1=O | > 100 µM (inactive) | > 100 µM (inactive) | > 100 µM (inactive) | > 100 µM (inactive) | > 100 µM (inactive) | > 100 | > 100 µM (inactive) | – | > 100 µM (inactive) | > 100 µM (inactive) | > 100 µM (inactive) | > 100 µM (inactive) | > 100 µM (inactive) | > 100 µM (inactive) | > 100 µM (inactive) | > 100 µM (inactive) | 56.1 µM (inactive) | > 100 µM (inactive) | > 100 µM (inactive) | –
N#Cc1c(-c2ccc([N+](=O)[O-])cc2)cc(-c2ccc(Nc3ccnc4cc(Cl)ccc34)cc2)[nH]c1=O | > 100 µM (inactive) | > 100 µM (inactive) | > 100 µM (inactive) | > 100 µM (inactive) | > 100 µM (inactive) | > 100 | – | > 100 µM (inactive) | 4.01 µM (inactive) | > 100 µM (inactive) | > 100 µM (inactive) | > 100 µM (inactive) | > 100 µM (inactive) | > 100 µM (inactive) | 63.8 µM (inactive) | > 100 µM (inactive) | > 100 µM (inactive) | 98.9 µM (inactive) | > 100 µM (inactive) | > 100 µM (inactive)
CC(C)CC1N=C(OCc2ccccc2)OC1=O (configuration not stated) | > 100 µM (inactive) | > 100 µM (inactive) | > 100 µM (inactive) | > 100 µM (inactive) | > 100 µM (inactive) | > 100 | > 100 µM (inactive) | > 100 µM (inactive) | > 100 µM (inactive) | > 100 µM (inactive) | > 100 µM (inactive) | > 100 µM (inactive) | > 100 µM (inactive) | > 100 µM (inactive) | > 100 µM (inactive) | > 100 µM (inactive) | > 100 µM (inactive) | > 100 µM (inactive) | > 100 µM (inactive) | –
O=c1oc2ccccc2cc1-c1cn2c(n1)sc1ccccc12 | > 100 µM (inactive) | – | > 100 µM (inactive) | > 100 µM (inactive) | 75.5 µM (inactive) | > 100 | > 100 µM (inactive) | > 100 µM (inactive) | 93.5 µM (inactive) | 4.75 µM (inactive) | > 100 µM (inactive) | > 100 µM (inactive) | 83.9 µM (inactive) | > 100 µM (inactive) | – | > 100 µM (inactive) | > 100 µM (inactive) | > 100 µM (inactive) | > 100 µM (inactive) | > 100 µM (inactive)
Cc1ccc(S(=O)(=O)NC(CN)C(=O)O)cc1 (configuration not stated) | > 100 µM (inactive) | > 100 µM (inactive) | > 100 µM (inactive) | > 100 µM (inactive) | > 100 µM (inactive) | > 100 | > 100 µM (inactive) | – | > 100 µM (inactive) | > 100 µM (inactive) | > 100 µM (inactive) | > 100 µM (inactive) | > 100 µM (inactive) | > 100 µM (inactive) | > 100 µM (inactive) | > 100 µM (inactive) | > 100 µM (inactive) | > 100 µM (inactive) | > 100 µM (inactive) | –
CC(C)=C[C@@H]1C[C@H](C)c2c(O)cc(C)c3c2C1=C(C)C(=O)C3=O [ELISABATIN A] | 15.9 µM (inactive) | 19.1 µM (inactive) | 10.1 µM (inactive) | 13.7 µM (inactive) | 15.2 µM (inactive) | 13.6 | 19.6 µM (inactive) | 17.2 µM (inactive) | 15.6 µM (inactive) | 22.8 µM (inactive) | 15.6 µM (inactive) | 18.9 µM (inactive) | 16.9 µM (inactive) | 17.9 µM (inactive) | 14.4 µM (inactive) | 17.4 µM (inactive) | 16.1 µM (inactive) | 22.3 µM (inactive) | – | –
Cc1ccc2c(n1)NC(=O)C(Cc1ccccc1)(N=[N+]=[N-])C2=O (configuration not stated) | > 100 µM (inactive) | > 100 µM (inactive) | > 100 µM (inactive) | > 100 µM (inactive) | > 100 µM (inactive) | > 100 | – | > 100 µM (inactive) | > 100 µM (inactive) | > 100 µM (inactive) | > 100 µM (inactive) | > 100 µM (inactive) | > 100 µM (inactive) | > 100 µM (inactive) | > 100 µM (inactive) | – | > 100 µM (inactive) | > 100 µM (inactive) | > 100 µM (inactive) | > 100 µM (inactive)
CC(=O)/C(=C/n1c(=S)sc2ccccc21)C(=O)Nc1ccccc1C | > 100 µM (inactive) | > 100 µM (inactive) | > 100 µM (inactive) | > 100 µM (inactive) | > 100 µM (inactive) | > 100 | – | – | > 100 µM (inactive) | > 100 µM (inactive) | > 100 µM (inactive) | > 100 µM (inactive) | > 100 µM (inactive) | > 100 µM (inactive) | > 100 µM (inactive) | > 100 µM (inactive) | > 100 µM (inactive) | > 100 µM (inactive) | > 100 µM (inactive) | –
